For one compound, IC50 results are on record in article PMC6336890 (Scientific Reports, 2019).

The structures appear in SMILES notation.

The target in this experiment is PARP1 (Homo sapiens, UniProt P09874). The experiment can be described thus: in vitro PARP1 activity ELISA, recombinant enzyme. Format: biochemical.
PARP1, sequence (P09874 2-1014): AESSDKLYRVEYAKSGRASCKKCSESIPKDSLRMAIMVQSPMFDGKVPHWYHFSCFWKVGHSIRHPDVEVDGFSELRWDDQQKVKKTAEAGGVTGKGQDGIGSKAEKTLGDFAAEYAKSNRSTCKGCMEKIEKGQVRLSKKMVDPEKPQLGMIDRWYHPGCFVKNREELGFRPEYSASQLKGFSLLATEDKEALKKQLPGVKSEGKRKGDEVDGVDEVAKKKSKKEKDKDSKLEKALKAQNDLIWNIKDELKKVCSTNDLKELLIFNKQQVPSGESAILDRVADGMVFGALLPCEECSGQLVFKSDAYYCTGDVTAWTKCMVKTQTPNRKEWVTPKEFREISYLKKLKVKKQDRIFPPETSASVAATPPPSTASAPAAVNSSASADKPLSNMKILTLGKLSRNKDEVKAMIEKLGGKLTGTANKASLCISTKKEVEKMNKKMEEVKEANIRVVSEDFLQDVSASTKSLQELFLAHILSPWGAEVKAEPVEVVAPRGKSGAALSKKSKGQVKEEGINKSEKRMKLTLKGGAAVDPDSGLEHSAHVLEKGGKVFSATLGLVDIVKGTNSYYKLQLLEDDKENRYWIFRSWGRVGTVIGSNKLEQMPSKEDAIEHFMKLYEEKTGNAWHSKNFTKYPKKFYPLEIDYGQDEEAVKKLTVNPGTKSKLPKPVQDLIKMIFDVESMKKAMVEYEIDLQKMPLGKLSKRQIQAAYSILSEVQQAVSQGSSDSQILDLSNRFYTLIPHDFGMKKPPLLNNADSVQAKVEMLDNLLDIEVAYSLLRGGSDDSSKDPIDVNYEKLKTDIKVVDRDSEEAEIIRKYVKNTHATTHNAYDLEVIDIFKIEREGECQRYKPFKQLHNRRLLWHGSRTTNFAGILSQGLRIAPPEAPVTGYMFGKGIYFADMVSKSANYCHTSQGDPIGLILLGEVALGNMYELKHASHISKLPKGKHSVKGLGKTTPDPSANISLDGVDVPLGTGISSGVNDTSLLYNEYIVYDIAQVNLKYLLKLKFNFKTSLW

For orientation: IC50 means the concentration needed to halve the response being measured. On to `Cc1ccc2c(=O)[nH]c(-c3ccc(C(C)(C)O)cc3)cn12` [MSC2504877], for which the IC50 was 540 nM.
